Laboratory results taken from patent US4368267A, “Epoxidation of lower α-olefins” (priority 1980, dated 1983).

Experiments:
[1] = tested on: Methylococcus capsulatus strain MC; test: Stimulation of propylene epoxidation in cell suspensions; assay type: cell-based; conditions: propylene alone
Protocol: (§1) The pH of the nutrient medium was adjusted to 7.0 by the addition of acid or base and 50 ml aliquots of the nutrient medium was charged into a plurality of 300 ml shake flasks. The shake flasks were inoculated with an inoculating loop of cells from an agar plate containing homogeneous colonies of the microorganisms on the plate (the purity of the isolates were confirmed by microscopic examination). The isolates had been maintained on agar plates under an atmosphere of methane and air having a 1:1 v/v gas ratio which had been transferred every two weeks. The gaseous phase of the inoculated flasks was then replaced with a gas mixture comprised of methane and air having a ratio of 1:1 on a v/v basis. The inoculated flasks were sealed air tight and were incubated on a rotary shaker of orbital radius 2.5 cm at 250 rpm and at 30° C. for two days until the turbidity in the medium had developed.
(§2) The cells were harvested by centrifugation at 10,000 ×g at 4° C. for 30 minutes. The cell pellet was washed twice with a 0.15 M phosphate buffer at a pH of 7.0 (containing 0.002 M MgCl2). The washed cells were then suspended in a 0.15 M phosphate buffer at pH 7.0.
(§3) A 0.5 ml aliquot of each washed cell suspension (2 mg cells) was put into 10 ml vials at 4° C. which were sealed with a rubber cap. The gaseous phase of the vials was removed with vacuum and then was replaced with a gas mixture of alkene and oxygen at a 1:1 v/v ratio. It was then incubated at 30° C. on a rotary shaker at 300 rpm. Samples of product (3 μl) were withdrawn periodically with a microsyringe and the products were analyzed by gas chromatography (ionization flame detector column).
(§4) Several experiments were carried out using a plurality of compounds capable of generating the necessary reducing power (NADH2 or NADPH2) required for the epoxidation of alkenes or dienes. These experiments were carried out using cell suspensions of methane grown methylotrophs using the procedure as described in Example 1 except that a stimulator compound was added to the reaction medium.

[2] = tested on: Methylobacter capsulatus Y (NRRL B-11,201); test: Methane hydroxylation and propylene epoxidation by washed cell suspensions; assay type: cell-based
Protocol: as §1, §2
as §3, with “The gaseous phase of the vials was removed with vacuum and then was replaced with a gas mixture of alkene and oxygen at a 1:1 v/v ratio.” left out
Several experiments were carried out using a plurality of compounds capable of generating the necessary reducing power (NADH2 or NADPH2) required for the epoxidation of alkenes or dienes. […]

[3] = tested on: Methylococcus capsulatus (CRL M1, NRRL B-11,219); test: Oxidation/epoxidation by washed cell suspensions; assay type: cell-based; conditions: propylene alone (control); 3 Hr
Protocol: as §1, with “The shake flasks were inoculated with an inoculating loop of cells from an agar plate containing homogeneous colonies of the microorganisms on the plate (the purity of the isolates were confirmed by microscopic examination).” left out
as §2, §3
The experimental procedure described in Example 1 was used to prepare washed cell suspensions of methane-grown microorganisms and the use of the same to oxidize or epoxidize the branched chain alkanes, alkenes and dienes.

[4] = tested on: Methylobacterium organophilum (CRL 26, NRRL B-11,222); test: Epoxidation/hydroxylation by washed cell suspensions; assay type: cell-based; conditions: propylene alone
Protocol: as §1, §2, §3, §4

[5] = tested on: P(40), P(80), S(80) cell fractions of Methylobacterium sp. (CRL-26, NRRL B-11,222); test: Methane and propylene oxidation by cell fractions; assay type: biochemical; conditions: 30° C.
Protocol: (§5) Cells were washed twice with 25 mM potassium phosphate buffer, pH 7.0 containing 5 mM MgCl2. Cells were suspended in the same buffer. The cell suspensions at 4° C. were disintegrated by a single passage through a French Pressure cell (15,000 lb./in.^2) and centrifuged at 5000×g. for 15 min. to remove unbroken bacteria. The supernatant solution (crude extract) was then centrifuged at 40,000×g. for 30 min., yielding particulate P(40) and soluble S(40) fractions. The S(40) fraction was subsequently centrifuged at 80,000×g. for 60 min., yielding particulate P(80) and soluble S(80) fractions. The particulate fractions [P(40) and P(80)] were suspended in 25 mM potassium phosphate buffer, pH 7.0, containing 5 mM MgCl2 and homogenized at 4° C.
(§6) The oxidation of methane and propylene by particulate [(P)40 and (P)80] fractions and soluble [S(80)] fraction was measured at 30° C. by estimating the production of methanol and propylene oxide, respectively. The reaction mixtures contained in 1.0 ml: 150 mM potassium phosphate buffer, pH 7.0 containing 5 mM MgCl2, 0.6 ml; […] NADH, and cellular fraction.
(§7) Reaction mixtures were contained in 10 ml vials at 4° C. Vials were sealed with rubber caps. The gaseous phase in the vials was removed using vacuum and then was replaced with a gas mixture of methane or propylene and oxygen at a 1:1, v/v ratio. Oxidation of other gaseous n-alkanes and n-alkenes was examined as described above. For liquid substrates, 10 μl of substrate was used directly.
(§8) The products of epoxidation of n-alkenes and hydroxylation of n-alkanes were assayed by flame ionization gas chromatography using a stainless steel column (12'×1/8") packed with 10% Carbowax 20 M on 80/100 Chromosorb W and Porapak Q column. The column temperature was maintained isothermally at 120° C. The carrier gas flow rate was 30 ml/min. of helium. The various products were identified by retention time comparisons and co-chromatography with authentic standards.
(§9) Specific activities were expressed as μ moles of products formed per hour per mg. protein. Concentrations of protein in various fractions were determined by the method of Lowry et al., J. Biol. Chem. 193: 265-275 (1951).

[6] = tested on: P(40), P(80), S(80) cell fractions of Methylomonas sp. (CRL-17, NRRL B-11,208); test: Methane and propylene oxidation by cell fractions; assay type: biochemical; conditions: 30° C.
Protocol: as §5, §6, §7, §8, §9

C=CC [Propylene]
Rate of Product Formation (Propylene Oxide) [1]: 3.5 nmoles/hr/mg protein | Conversion rate, propylene to propylene oxide ([2]; methane-grown washed cells, 30° C.): 1.5 μmole/hr/mg protein | Rate of Product Formation (Propylene Oxide) ([2]; propylene alone): 2 nmoles/hr/mg protein | Epoxidation Rate, Propylene oxide [3]: 3.9 μmoles/0.5 ml | Rate of Product Formation (Propylene Oxide) [4]: 10 nmoles/hr/mg protein | Propylene-Oxidizing Activity, P(40) ([5]; P(40) fraction): 1.2 μmoles of product formed per h | Propylene-Oxidizing Activity, P(80) ([5]; P(80) fraction): 1.1 μmoles of product formed per h | Propylene-Oxidizing Activity, S(80) ([5]; S(80) fraction): 0 μmoles of product formed per h | Propylene-Oxidizing Activity, P(40) ([6]; P(40) fraction): 2.2 μmoles of product formed per h | Propylene-Oxidizing Activity, P(80) ([6]; P(80) fraction): 2.0 μmoles of product formed per h | Propylene-Oxidizing Activity, S(80) ([6]; S(80) fraction): 0 μmoles of product formed per h

C [Methane]
Methane-Oxidizing Activity, P(40) ([5]; P(40) fraction): 2.7 μmoles of product formed per h | Methane-Oxidizing Activity, P(80) ([5]; P(80) fraction): 2.8 μmoles of product formed per h | Methane-Oxidizing Activity, S(80) ([5]; S(80) fraction): 0 μmoles of product formed per h | Methane-Oxidizing Activity, P(40) ([6]; P(40) fraction): 2.9 μmoles of product formed per h | Methane-Oxidizing Activity, P(80) ([6]; P(80) fraction): 2.7 μmoles of product formed per h | Methane-Oxidizing Activity, S(80) ([6]; S(80) fraction): 0 μmoles of product formed per h
